Assay results published in the supplement of paper PMC10307832.

Legend:
Experiment in all cases: relative viability (nuclei count vs DMSO), 5 days (fraction); higher = more cells survive
[1] = compound: C1CNCCC1C2=CC(=NN2)C3=CC=NC=C3 + CC1(C)CCC(c2ccc(Cl)cc2)=C(CN2CCN(c3ccc(C(=O)NS(=O)(=O)c4ccc(N[C@H](CCN5CCOCC5)CSc5ccccc5)c(S(=O)(=O)C(F)(F)F)c4)cc3)CC2)C1 [Navitoclax] (partner 0.5 µM)
Method in brief: (§1)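 Cells from lung cancer lines were seeded into 1536-well plates and, one day later, dosed by pin tool. Treatments were either a single drug or a fixed dose of an anchor drug with five library-drug doses (not always all listed) in √10 steps. After 5 days, nuclei were stained in a one-step fixation (final 0.05% Triton X-100, 1% formaldehyde, 1 ug/ml Hoechst) and counted on 4× images, and relative viability is the treated-to-vehicle nuclei ratio, as the median of duplicate plates.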

[2] = compound: C[C@@H](N)c1ccc(C(=O)Nc2ccnc3[nH]ccc23)cc1 + COc1cccc2cc(-c3nc([C@H]4CC[C@H](C(=O)O)CC4)n4ncnc(N)c34)[nH]c12 [OSI-027] (partner 0.5 µM)
Method in brief: as §1

Tanzisertib + Trametinib = compound: O[C@H]1CC[C@H](Nc2ncc3nc(Nc4c(F)cc(F)cc4F)n([C@H]4CCOC4)c3n2)CC1 [Tanzisertib] + CC(=O)Nc1cccc(-n2c(=O)n(C3CC3)c(=O)c3c(Nc4ccc(I)cc4F)n(C)c(=O)c(C)c32)c1 [Trametinib] (partner 0.02 µM)
Method in brief: as §1

Tanzisertib + Linsitinib = compound: O[C@H]1CC[C@H](Nc2ncc3nc(Nc4c(F)cc(F)cc4F)n([C@H]4CCOC4)c3n2)CC1 [Tanzisertib] + C[C@]1(O)C[C@@H](c2nc(-c3ccc4ccc(-c5ccccc5)nc4c3)c3c(N)nccn32)C1 [Linsitinib] (partner 1 µM)
Method in brief: as §1

| Cell Line | relative viability ([1]; first compound 0.08 µM) | relative viability ([1]; first compound 0.8 µM) | relative viability ([1]; first compound 2.53 µM) | relative viability ([1]; first compound 8 µM) | relative viability ([2]; first compound 0.04 µM) | relative viability ([2]; first compound 0.1265 µM) | relative viability ([2]; first compound 0.4 µM) | relative viability ([2]; first compound 1.265 µM) | relative viability ([2]; first compound 4 µM) | relative viability (Tanzisertib + Trametinib; first compound 0.08 µM) | relative viability (Tanzisertib + Trametinib; first compound 0.253 µM) | relative viability (Tanzisertib + Trametinib; first compound 0.8 µM) | relative viability (Tanzisertib + Trametinib; first compound 2.53 µM) | relative viability (Tanzisertib + Trametinib; first compound 8 µM) | relative viability (Tanzisertib + Linsitinib; first compound 0.08 µM) | relative viability (Tanzisertib + Linsitinib; first compound 0.253 µM) | relative viability (Tanzisertib + Linsitinib; first compound 0.8 µM) | relative viability (Tanzisertib + Linsitinib; first compound 2.53 µM) | relative viability (Tanzisertib + Linsitinib; first compound 8 µM) |
| --- | --- | --- | --- | --- | --- | --- | --- | --- | --- | --- | --- | --- | --- | --- | --- | --- | --- | --- | --- |
| NCI-H727 | 0.411 | 0.459 | 0.623 | 0.67 | 0.832 | 0.68 | 0.719 | 0.676 | 0.852 | 0.38 | 0.391 | 0.387 | 0.347 | 0.352 | 0.358 | 0.32 | 0.322 | 0.38 | 0.249 |
| HARA | 1.13 | 1.14 | 1.17 | 1.2 | – | 0.437 | 0.638 | – | 0.481 | 0.801 | 0.692 | 0.689 | 0.711 | 0.687 | 0.842 | 0.572 | 0.901 | 0.892 | 0.987 |
| NCI-H2228 | 0.82 | 1.31 | 0.647 | 0.951 | 0.581 | 0.618 | 0.65 | 0.786 | 0.543 | 0.581 | 0.34 | 0.806 | 0.362 | 0.259 | 0.877 | 0.691 | 0.573 | 0.553 | 0.509 |
| LCLC-97TM1 | 0.432 | 0.385 | 0.396 | 0.68 | 0.69 | 0.587 | 0.625 | 0.384 | 0.701 | 0.236 | 0.227 | 0.234 | 0.172 | 0.172 | – | 0.18 | 0.192 | 0.186 | 0.2 |
| LC-2-ad | 0.721 | 0.5 | 0.503 | 0.35 | 0.763 | 0.893 | 0.858 | – | 0.625 | 1 | 0.915 | 0.973 | 0.932 | 0.877 | 0.94 | 0.838 | 0.921 | 0.812 | 0.796 |
| SK-LU-1 | 1.25 | 0.913 | 0.85 | 0.88 | 0.37 | 0.356 | 0.365 | 0.385 | 0.359 | 0.576 | 0.507 | 0.528 | 0.54 | 0.471 | 1.16 | 1.15 | 1.14 | 1.17 | 1.23 |
| EKVX | 1.03 | 0.713 | 1.07 | 0.96 | 0.609 | 0.798 | 0.832 | 0.761 | 0.727 | 0.487 | 0.301 | 0.368 | 0.347 | 0.295 | 0.953 | 1.02 | 1.04 | 1.02 | 0.822 |
| HCC-827 | 0.972 | 0.995 | 0.991 | 0.876 | 0.849 | 0.873 | 0.844 | 0.922 | 0.764 | 0.556 | 0.552 | 0.481 | 0.411 | 0.265 | 0.919 | 0.915 | 0.907 | 0.954 | 0.746 |
| NCI-H650 | – | – | – | – | – | 0.508 | 0.503 | 0.488 | 0.421 | 0.975 | 0.946 | 1.06 | 0.983 | 0.874 | 0.949 | 0.918 | 0.92 | 1.2 | 0.366 |
| CAL-12T | 1.11 | 1.45 | 1.29 | 1.43 | 1.19 | 0.784 | 0.928 | 0.3 | 0.78 | 0.317 | 0.336 | 0.396 | 0.387 | 0.432 | 0.896 | 0.769 | 0.882 | 0.977 | 0.817 |
| NCI-H2342 | – | – | – | – | 0.711 | 0.694 | 0.763 | 0.655 | 0.675 | 0.791 | 0.733 | 0.804 | 0.863 | 0.938 | – | – | – | – | – |
| SW 900 | – | – | – | – | 0.657 | 0.608 | 0.596 | 0.688 | 0.824 | – | 0.868 | 0.857 | 0.552 | 0.737 | – | – | – | – | – |
| IA-LM | 0.919 | 0.749 | 0.687 | 0.611 | – | – | – | – | – | – | – | – | – | – | 0.793 | 0.552 | 0.589 | 0.712 | 0.768 |
| EPLC-272H | 1.12 | 1.22 | 1.19 | 1.17 | 0.285 | 0.308 | 0.308 | 0.244 | 0.293 | 0.318 | 0.279 | 0.322 | 0.317 | 0.297 | 1.46 | 1.18 | 1.19 | 1.12 | 1.08 |
| A-427 | 0.954 | 0.913 | 1.02 | 0.93 | 0.407 | 0.392 | 0.509 | – | 0.466 | 0.813 | 0.745 | 0.742 | 0.736 | 0.751 | 1.15 | 1.11 | 1.14 | 1.07 | 1.17 |
| NCI-H647 | 1.18 | 1.33 | 1.37 | 1.12 | 0.597 | 0.611 | 0.586 | 0.574 | 0.501 | 0.702 | 0.47 | 0.524 | 0.528 | 0.418 | 1.17 | 1.29 | 1.12 | 1.24 | 1.3 |
| NCI-H1975 | 1.18 | 1.2 | 1.19 | 1.09 | 0.799 | 0.876 | 0.666 | 0.673 | 0.533 | 0.396 | 0.422 | 0.345 | 0.349 | 0.341 | 1.1 | 0.979 | 0.993 | 1.07 | 0.873 |
| NCI-H358 | – | – | – | – | 0.816 | 1.07 | 0.855 | 0.794 | 0.701 | 0.141 | 0.134 | 0.151 | 0.155 | 0.133 | 0.771 | 0.662 | 0.76 | 0.782 | 0.566 |
| PC-3 [JPC-3] | 0.835 | 0.905 | 0.818 | 0.786 | 0.789 | 0.76 | 0.783 | 0.775 | 0.792 | 0.715 | 0.759 | 0.763 | 0.774 | 0.612 | 1.05 | 0.957 | 0.963 | 0.963 | 0.899 |
